“And” between values parts separate entries of the source, which are not always exact repeats. Identical values can stand only once. Inconclusive results and toxic doses are left out. The calls were made as follows: active = survival T/C of 150% or more; inactive = T/C below 125% in these data.
System: P388 leukemia ip, CD2F1 mice, survival T/C
Assay: NCI In Vivo Anticancer Drug Screen. Data for tumor model P388 Leukemia (intraperitoneal) in CD2F1 (CDF1) mice
Settings: endpoint: median survival time, higher = longer survival
Outline: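 Mice carrying the transplanted tumor received test compound or vehicle. Survival was recorded in each group, and the value is the treated-group measurement divided by that of the vehicle-treated control group.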

[1] = dose: 50.0 mg/kg/injection, schedule: Q01DX009 (ip), vehicle: saline with Tween-80
[2] = dose: 100.0 mg/kg/injection, schedule: Q01DX009 (ip), vehicle: saline with Tween-80
[3] = dose: 200.0 mg/kg/injection, schedule: Q01DX009 (ip), vehicle: saline with Tween-80
[4] = dose: 25.0 mg/kg/injection, schedule: Q01DX009 (ip), vehicle: saline with Tween-80
[5] = dose: 50.0 mg/kg/injection, schedule: Q01DX005 (ip), vehicle: saline with Tween-80
[6] = dose: 100.0 mg/kg/injection, schedule: Q01DX005 (ip), vehicle: saline with Tween-80
[7] = dose: 60.0 mg/kg/injection, schedule: Q01DX005 (ip), vehicle: saline with Tween-80
[8] = dose: 120.0 mg/kg/injection, schedule: Q01DX005 (ip), vehicle: saline with Tween-80
[9] = dose: 240.0 mg/kg/injection, schedule: Q01DX005 (ip), vehicle: saline with Tween-80
[10] = dose: 50.0 mg/kg/injection, schedule: Q01DX009 (ip), vehicle: Klucel (hydroxypropylcellulose) (HPC)
[11] = dose: 200.0 mg/kg/injection, schedule: Q01DX005 (ip), vehicle: saline with Tween-80

Measured: T/C

C[C@]12CC[C@H]3[C@@H](CC[C@]4(O)C[C@@H](O)CC[C@]34CO)[C@@]1(O)CC[C@@H]2C1=CC(=O)OC1
inactive: dose: 25.0 mg/kg/injection, schedule: Q04DX003 (ip), vehicle: suspension in saline 97 % of control | dose: 50.0 mg/kg/injection, schedule: Q04DX003 (ip), vehicle: suspension in saline 98 % of control | dose: 100.0 mg/kg/injection, schedule: Q04DX003 (ip), vehicle: suspension in saline 97 % of control | dose: 200.0 mg/kg/injection, schedule: Q04DX003 (ip), vehicle: suspension in saline 100 % of control

COC(=O)c1ccc(C(=O)OC)c2nn3c(N)nnc3nc12
inactive: dose: 60.0 mg/kg/injection, schedule: Q01DX005 (ip), vehicle: saline 110 % of control | dose: 120.0 mg/kg/injection, schedule: Q01DX005 (ip), vehicle: saline 100 % of control | dose: 240.0 mg/kg/injection, schedule: Q01DX005 (ip), vehicle: saline 100 % of control

CCOC(=O)C(C#N)C1(c2ccccc2)CCCCC1 (stereo not given)
inactive: [1] 112 % of control | [2] 101 % of control | [3] 101 % of control

COc1cccc2c1C(=O)c1c(O)c3c(c(O)c1C2=O)C[C@@](O)(c1csc(-c2ccncc2)n1)C[C@@H]3OC1CC(N)C(O)C(C)O1 (stereo not given in full)
inactive: dose: 6.25 mg/kg/injection, schedule: Q04DX003 (ip), vehicle: water 118 % of control | dose: 12.5 mg/kg/injection, schedule: Q04DX003 (ip), vehicle: water 122 % of control | dose: 25.0 mg/kg/injection, schedule: Q04DX003 (ip), vehicle: water 100 % of control | dose: 50.0 mg/kg/injection, schedule: Q04DX003 (ip), vehicle: water 118 % of control | dose: 200.0 mg/kg/injection, schedule: Q04DX003 (ip), vehicle: water 92 % of control

CC1(C)CC(=O)C(CC2C(=O)CC(C)(C)CC2=O)C(=O)C1
inactive: [4] 87 % of control | [1] 97 % of control | [2] 103 % of control | [3] 95 % of control

CC(C)(C)OC(=O)NCS(=O)(=O)N(Cc1ccccc1)Cc1ccccc1
inactive: dose: 50.0 mg/kg/injection, schedule: Q01DX005 (ip), vehicle: Klucel (hydroxypropylcellulose) (HPC) 102 % of control | dose: 100.0 mg/kg/injection, schedule: Q01DX005 (ip), vehicle: Klucel (hydroxypropylcellulose) (HPC) 101 % of control | dose: 200.0 mg/kg/injection, schedule: Q01DX005 (ip), vehicle: Klucel (hydroxypropylcellulose) (HPC) 97 % of control

CCOC(=O)c1ccc(NC(=O)Nc2ccc(Nc3ccccc3)cc2)cc1
inactive: dose: 60.0 mg/kg/injection, schedule: Q01DX005 (ip), vehicle: Klucel (hydroxypropylcellulose) (HPC) 95 % of control | dose: 120.0 mg/kg/injection, schedule: Q01DX005 (ip), vehicle: Klucel (hydroxypropylcellulose) (HPC) 92 % of control | dose: 240.0 mg/kg/injection, schedule: Q01DX005 (ip), vehicle: Klucel (hydroxypropylcellulose) (HPC) 88 % of control

COC(=O)c1ccc(O)c(O)c1
inactive: [2] 104 % of control | [3] 100 % of control | dose: 400.0 mg/kg/injection, schedule: Q01DX009 (ip), vehicle: saline with Tween-80 100 % of control

CCOC(=O)CC1CC(=O)C(C(=O)OCC)C=C1C(=O)OCC (stereo not given)
inactive: [5] 94 % of control | [6] 98 % of control

NC(=O)N/N=C(/Cc1nc2ccccc2nc1C/C(=N/NC(N)=O)c1cccc2ccccc12)c1cccc2ccccc12
inactive: [7] 99 % of control and 95 % of control | [8] 100 % of control | [9] 100 % of control and 91 % of control

C=C1C(=O)OC2C/C(C)=C/CC/C(C)=C/CCC3(COC(C)=O)OC3CC12 (stereo not given)
inactive: dose: 1.0 mg/kg/injection, schedule: Q01DX008 (ip), vehicle: Klucel (hydroxypropylcellulose) (HPC) 99 % of control | dose: 2.0 mg/kg/injection, schedule: Q01DX008 (ip), vehicle: Klucel (hydroxypropylcellulose) (HPC) 100 % of control | dose: 4.0 mg/kg/injection, schedule: Q01DX008 (ip), vehicle: Klucel (hydroxypropylcellulose) (HPC) 97 % of control | dose: 8.0 mg/kg/injection, schedule: Q01DX008 (ip), vehicle: Klucel (hydroxypropylcellulose) (HPC) 103 % of control | dose: 16.0 mg/kg/injection, schedule: Q01DX008 (ip), vehicle: Klucel (hydroxypropylcellulose) (HPC) 107 % of control

C=C1CCC2(C)C(O)CC3(C)C(CCC4C5(C)CCC(OC(C)=O)C(C)(C)C5CCC43C)C2C1C (stereo not given)
inactive: dose: 1.0 mg/kg/injection, schedule: Q01DX009 (ip), vehicle: alcohol 107 % of control | dose: 2.0 mg/kg/injection, schedule: Q01DX009 (ip), vehicle: alcohol 105 % of control | dose: 4.0 mg/kg/injection, schedule: Q01DX009 (ip), vehicle: alcohol 115 % of control

NCP(=O)(CN)CN
inactive: [10] 99 % of control | dose: 100.0 mg/kg/injection, schedule: Q01DX009 (ip), vehicle: Klucel (hydroxypropylcellulose) (HPC) 100 % of control | dose: 200.0 mg/kg/injection, schedule: Q01DX009 (ip), vehicle: Klucel (hydroxypropylcellulose) (HPC) 100 % of control

CCCCCCC(=O)/C=C/c1ccc(Br)cc1
inactive: [5] 104 % of control | [6] 104 % of control | [11] 97 % of control

N#CN(Cc1ccccc1)Cc1ccccc1.[I][Sn]([c]1ccccc1)([c]1ccccc1)[c]1ccccc1
inactive: dose: 1.5 mg/kg/injection, schedule: Q01DX005 (ip), vehicle: saline with Tween-80 101 % of control | dose: 3.0 mg/kg/injection, schedule: Q01DX005 (ip), vehicle: saline with Tween-80 108 % of control | dose: 6.0 mg/kg/injection, schedule: Q01DX005 (ip), vehicle: saline with Tween-80 100 % of control | dose: 6.25 mg/kg/injection, schedule: Q01DX005 (ip), vehicle: saline with Tween-80 94 % of control

CC(C)CCc1cc(O)c(CCC(C)C)cc1O
inactive: dose: 6.25 mg/kg/injection, schedule: Q01DX009 (ip), vehicle: saline with Tween-80 88 % of control | [4] 109 % of control | [1] 108 % of control | [2] 114 % of control

O=[N+]([O-])c1cc2no[n+]([O-])c2cc1N1CCCCC1
inactive: dose: 3.75 mg/kg/injection, schedule: Q01DX009 (ip), vehicle: saline 97 % of control | dose: 3.75 mg/kg/injection, schedule: Q01DX009 (ip), vehicle: suspension in saline 94 % of control | dose: 7.5 mg/kg/injection, schedule: Q01DX009 (ip), vehicle: saline 114 % of control | dose: 7.5 mg/kg/injection, schedule: Q01DX009 (ip), vehicle: suspension in saline 103 % of control | dose: 15.0 mg/kg/injection, schedule: Q01DX009 (ip), vehicle: saline 101 % of control | dose: 15.0 mg/kg/injection, schedule: Q01DX009 (ip), vehicle: suspension in saline 103 % of control | dose: 30.0 mg/kg/injection, schedule: Q01DX009 (ip), vehicle: saline 108 % of control | dose: 30.0 mg/kg/injection, schedule: Q01DX009 (ip), vehicle: suspension in saline 122 % of control

COc1cc(=O)[nH]c(-c2ccccc2)c1OC
inactive: [7] 99 % of control | [8] 99 % of control | [9] 99 % of control

C=C(CCCC)CNCCOC(=O)c1ccc([N+](=O)[O-])cc1
inactive: dose: 12.5 mg/kg/injection, schedule: Q04DX003 (ip), vehicle: saline 104 % of control | dose: 25.0 mg/kg/injection, schedule: Q04DX003 (ip), vehicle: saline 104 % of control | dose: 50.0 mg/kg/injection, schedule: Q04DX003 (ip), vehicle: saline 104 % of control

CCOC(=O)ON(C)C(=O)OCC
inactive: [5] 102 % of control | [6] 102 % of control | [11] 107 % of control | dose: 400.0 mg/kg/injection, schedule: Q01DX005 (ip), vehicle: saline with Tween-80 102 % of control

O=C(O)CCC12CCC(=O)N1Cc1ccccc1C2=O (stereo not given)
inactive: [7] 107 % of control | [8] 110 % of control | [9] 109 % of control

O=c1[nH]c(=O)c2ccccc2o1
inactive: dose: 6.25 mg/kg/injection, schedule: Q01DX009 (ip), vehicle: Klucel (hydroxypropylcellulose) (HPC) 104 % of control | dose: 12.5 mg/kg/injection, schedule: Q01DX009 (ip), vehicle: Klucel (hydroxypropylcellulose) (HPC) 111 % of control | dose: 25.0 mg/kg/injection, schedule: Q01DX009 (ip), vehicle: Klucel (hydroxypropylcellulose) (HPC) 110 % of control | [10] 106 % of control

CCOC(=O)N1CCc2cc3c(cc2C1Cc1ccc(OC)c(OC)c1CCl)OCO3 (stereo not given)
inactive: [5] 100 % of control | [6] 92 % of control

Nc1cc(-c2ccccc2)cn1-c1nnc(-c2ccc(Br)cc2)s1
inactive: dose: 100.0 mg/kg/injection, schedule: Q01DX001 (ip), vehicle: Klucel (hydroxypropylcellulose) (HPC) 101 % of control | dose: 200.0 mg/kg/injection, schedule: Q01DX001 (ip), vehicle: Klucel (hydroxypropylcellulose) (HPC) 100 % of control | dose: 400.0 mg/kg/injection, schedule: Q01DX001 (ip), vehicle: Klucel (hydroxypropylcellulose) (HPC) 99 % of control

Reference: PubChem BioAssay AID330 (DTP/NCI, 2004)
